Experiments:
Format in all cases: in vivo
[1] = test system: common ragweed (Ambrosia artemisiifolia L., AMBEL); assay: Post-emerge greenhouse herbicide test, phytotoxicity rating; details: 14 days after application
Procedure, shortened: (§1)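 Compounds in acetone with 0.25% v/v non-ionic surfactant were track-sprayed at 187 l/ha over plants at the 2-3 leaf stage, at 63 to 1000 g ai/ha. Pots were bottom-watered. Injury was scored visually 14 days later on a 0-100 scale, where 0 is no damage and 100 is complete plant death.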

[2] = test system: green foxtail (Setaria viridis, SETVI); assay: as above; details: 14 days after application
Procedure, shortened: as §1

[3] = test system: barnyardgrass (Echinochloa crusgalli, ECHCG); assay: as above; details: 14 days after application
Procedure, shortened: as §1

[4] = test system: velvetleaf (Abutilon theophrasti, ABUTH); assay: as above; details: 14 days after application
Procedure, shortened: as §1

[5] = test system: ivyleaf morningglory (Ipomoea hederacea, IPOHE); assay: as above; details: 14 days after application
Procedure, shortened: as §1

[6] = test system: Johnsongrass (Sorghum halepense, SORHA); assay: as above; details: 14 days after application
Procedure, shortened: as §1

[7] = test system: redroot pigweed (Amaranthus retroflexus, AMARE); assay: as above; details: 14 days after application
Procedure, shortened: as §1

[8] = test system: lambsquarters (Chenopodium album, CHEAL); assay: as above; details: 14 days after application
Procedure, shortened: as §1

[9] = test system: large crabgrass (Digitaria sanguinalis, DIGSA); assay: as above; details: 14 days after application
Procedure, shortened: as §1

[10] = test system: upland rice (Oryza sp., var.Tebonnet, RICE); assay: Post-emerge greenhouse test, crop damage rating; details: 14 days after application
Procedure, shortened: as §1

[11] = test system: field corn (Zea mays L., var. Dekalb 535, CORN); assay: Post-emerge greenhouse test, crop damage rating; details: 14 days after application
Procedure, shortened: as §1

[12] = test system: soybean (Glycine max L., var. Pella 86, SOY); assay: Pre-emerge greenhouse test, crop damage rating; details: 14 days after application, rating scale 0-100
Procedure, shortened: (§2)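 Seeds sown in sandy loam mix one day before track-sprayer application of compounds in acetone at 125–1000 g ai/ha (187 l/ha), then surface-watered to incorporate and bottom-watered. Visual rating 14 days after application on a 0–100 scale (0 = no damage, 100 = all plants dead).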

[13] = test system: upland rice (Oryza sp., var.Tebonnet, RICE); assay: Pre-emerge greenhouse test, crop damage rating; details: 125 g ai/ha, 14 days after application, rating scale 0-100
Procedure, shortened: as §2

[14] = test system: field corn (Zea mays L., var. Dekalb 535, CORN); assay: Pre-emerge greenhouse test, crop damage rating; details: 14 days after application, rating scale 0-100
Procedure, shortened: as §2

[15] = test system: soybean (Glycine max L., var. Pella 86, SOY); assay: Post-emerge greenhouse test, crop damage rating; details: 14 days after application
Procedure, shortened: as §1

[16] = test system: green foxtail (Setaria viridis, SETVI); assay: Pre-emerge greenhouse herbicide test, phytotoxicity rating; details: 14 days after application, rating scale 0-100
Procedure, shortened: as §2

[17] = test system: barnyardgrass (Echinochloa crusgalli, ECHCG); assay: as above; details: 14 days after application, rating scale 0-100
Procedure, shortened: as §2

[18] = test system: velvetleaf (Abutilon theophrasti, ABUTH); assay: as above; details: 14 days after application, rating scale 0-100
Procedure, shortened: as §2

[19] = test system: ivyleaf morningglory (Ipomoea hederacea, IPOHE); assay: as above; details: 14 days after application, rating scale 0-100
Procedure, shortened: as §2

[20] = test system: sicklepod (Cassia obtusifolia, CASOB); assay: as above; details: 14 days after application, rating scale 0-100
Procedure, shortened: as §2

[21] = test system: Johnsongrass (Sorghum halepense, SORHA); assay: as above; details: 14 days after application, rating scale 0-100
Procedure, shortened: as §2

[22] = test system: redroot pigweed (Amaranthus retroflexus, AMARE); assay: as above; details: 14 days after application, rating scale 0-100
Procedure, shortened: as §2

[23] = test system: common ragweed (Ambrosia artemisiifolia L., AMBEL); assay: as above; details: 14 days after application, rating scale 0-100
Procedure, shortened: as §2

[24] = test system: lambsquarters (Chenopodium album, CHEAL); assay: as above; details: 14 days after application, rating scale 0-100
Procedure, shortened: as §2

[25] = test system: large crabgrass (Digitaria sanguinalis, DIGSA); assay: as above; details: 14 days after application, rating scale 0-100
Procedure, shortened: as §2

Cn1nc(-c2cc(Oc3ccc(C#N)cn3)c(Cl)cc2F)c(Cl)c1C(F)(F)F [Compound 1-4]
AMBEL phytotoxicity rating (0-100) ([1]; 63 g al/ha): 20
AMBEL phytotoxicity rating (0-100) ([1]; 500 g al/ha): 70
SETVI phytotoxicity rating (0-100) ([2]; 63 g al/ha): 0
SETVI phytotoxicity rating (0-100) ([2]; 500 g al/ha): 70
ECHCG phytotoxicity rating (0-100) ([3]; 63 g al/ha): 0
ECHCG phytotoxicity rating (0-100) ([3]; 500 g al/ha): 50
ABUTH phytotoxicity rating (0-100) ([4]; 63 g al/ha): 30
ABUTH phytotoxicity rating (0-100) ([4]; 500 g al/ha): 90
IPOHE phytotoxicity rating (0-100) ([5]; 63 g al/ha): 70
IPOHE phytotoxicity rating (0-100) ([5]; 500 g al/ha): 100
SORHA phytotoxicity rating (0-100) ([6]; 63 g al/ha): 40
SORHA phytotoxicity rating (0-100) ([6]; 500 g al/ha): 80
AMARE phytotoxicity rating (0-100) ([7]; 63 g al/ha): 100
AMARE phytotoxicity rating (0-100) ([7]; 500 g al/ha): 100
CHEAL phytotoxicity rating (0-100) ([8]; 63 g al/ha): 0
CHEAL phytotoxicity rating (0-100) ([8]; 500 g al/ha): 100
DIGSA phytotoxicity rating (0-100) ([9]; 63 g al/ha): 20
DIGSA phytotoxicity rating (0-100) ([9]; 500 g al/ha): 40
RICE crop damage rating (0-100) ([10]; 63 g al/ha): 20
RICE crop damage rating (0-100) ([10]; 500 g al/ha): 50
CORN crop damage rating (0-100) ([11]; 63 g al/ha): 0
CORN crop damage rating (0-100) ([11]; 500 g al/ha): 0
crop damage rating SOY ([12]; 125 g ai/ha): 10
crop damage rating SOY ([12]; 500 g ai/ha): 0
crop damage rating RICE [13]: 30
crop damage rating CORN ([14]; 125 g ai/ha): 10
crop damage rating CORN ([14]; 500 g ai/ha): 0
SOY crop damage rating (0-100) ([15]; 63 g al/ha): 0
SOY crop damage rating (0-100) ([15]; 500 g al/ha): 80
phytotoxicity rating SETVI ([16]; 125 g ai/ha): 90
phytotoxicity rating SETVI ([16]; 500 g ai/ha): 99
phytotoxicity rating ECHCG ([17]; 125 g ai/ha): 0
phytotoxicity rating ECHCG ([17]; 500 g ai/ha): 20
phytotoxicity rating ABUTH ([18]; 125 g ai/ha): 0
phytotoxicity rating ABUTH ([18]; 500 g ai/ha): 80
phytotoxicity rating IPOHE ([19]; 125 g ai/ha): 0
phytotoxicity rating IPOHE ([19]; 500 g ai/ha): 30
phytotoxicity rating CASOB ([20]; 125 g ai/ha): 0
phytotoxicity rating CASOB ([20]; 500 g ai/ha): 0
phytotoxicity rating SORHA ([21]; 125 g ai/ha): 20
phytotoxicity rating SORHA ([21]; 500 g ai/ha): 95
phytotoxicity rating AMARE ([22]; 125 g ai/ha): 100
phytotoxicity rating AMARE ([22]; 500 g ai/ha): 100
phytotoxicity rating AMBEL ([23]; 125 g ai/ha): 0
phytotoxicity rating AMBEL ([23]; 500 g ai/ha): 20
phytotoxicity rating CHEAL ([24]; 125 g ai/ha): 90
phytotoxicity rating CHEAL ([24]; 500 g ai/ha): 95
phytotoxicity rating DIGSA ([25]; 125 g ai/ha): 50
phytotoxicity rating DIGSA ([25]; 500 g ai/ha): 50
